We go through six compounds from patent US20060067990A1 (priority 2004, published 2006).

Values joined by “and” are separate entries in the source; they are usually repeats but may differ in a detail not shown here. Equal values may be shown once.

The subject of data set [1] is S. aureus MN8. In kind it is cell-based, Staphylococcus aureus.
The test system of data set [2] is TSST-1. Type of data set: cell-based, Staphylococcus aureus.
The subject of data set [3] is enzymes produced by S. aureus MN8. Nature of the data set: Breakdown of test compounds by enzymes produced by S. aureus MN8 (GC/MS and liquid chromatography of culture fluid). Type of data set: in vitro ADME, Staphylococcus aureus. The following applies: Example 7; for GC/MS: concentration of the dominant compound over time / GC/MS: dominant compound found in the sample: culture fluid at 3, 6, 9 and 24 hours. The procedure:
The test compounds, in the desired concentrations, were placed in 100 mL of a growth medium in a sterile, 500 mL Corning Fleaker (Fisher Scientific, Pittsbury, Pa.). The growth medium and inoculum were prepared as in Example 1.
The test compounds were added to the growth medium in the amount necessary to obtain the desired final concentration.
Each fleaker was inoculated with the amount of inoculum determined as described above. The fleakers were capped with sterile aluminum foil and incubated at 35° C. in atmospheric air in a Lab-Line orbital water bath (available from VWR Scientific Products, McGaw Park, Ill.) at 180 rpm. Fifteen milliliter samples were removed at 3, 6, 9, and 24 hours. The optical density (595 nm) of the culture fluid was determined and the culture fluid collected at 24 hours was assayed for the number of colony forming units of S. aureus MN8 using standard plate count procedures.
In preparation for analysis of the integrity of the test compounds, the culture fluid was centrifuged at 3000 rpm at 2-10° C. for 15 minutes. The supernatant was filter sterilized through an AUTOVIAL 5 syringeless filter, […] pore size (available from Whatman, Inc., Clifton, N.J.). The resulting fluid was frozen at −70° C. in a FISHERBRAND (12 mm×75 mm) polystyrene culture tube (Fisher Scientific, Pittsburgh, Pa.) until chemical analysis could be performed.
Using an Agilent Technologies 5973N GC/MS, analysis was performed on undiluted solutions at 3, 6, 9, and 24 hours to evaluate the ability of S. aureus MN8 to breakdown the test compounds. Based on the analysis, the control sample, which had no test compounds added, comprised mostly acetic acid at all time intervals.
Additional analysis of the 6 hour and 24 hour samples was conducted by liquid chromatography. In preparation for the chromatography, the samples were diluted 10 fold with water. The dilutions were then analyzed using an ion exclusion column to achieve the separation. Detection of the compounds was accomplished through UV absorbance at 230 nm.

The subject of data set [4] is TSST-1. Type of data set: cell-based, Staphylococcus aureus. This is another data set of the same source.

For myreth-3-myristate [Cetiol 1414E], in data set [1], the CFU/mL was 1.75E+08 CFU/mL and 2.61E+08 CFU/mL and 2.48E+08 CFU/mL and 2.05E+08 CFU/mL; the “CFU/mL ×10^7” value was 22.5 CFU/mL ×10^7 and 25.6 CFU/mL ×10^7 and 17.4 CFU/mL ×10^7; the “inhibition of the growth of S. aureus, pairwise statistical comparison” value is given as “significantly greater inhibition of the growth of S. aureus”. Moreover, in data set [2], the “% Reduction” value was 74% and 69% and 87%; the “ELISA: TSST-1 (% inhibition)” value is “(79%)”; the “ELISA: TSST-1 Nanograms/mL” value is on record as 61 Nanograms/mL.
Turning to `CC(C)CC(NC(=O)c1ccccc1)C(=O)O` (racemic) [N-benzoyl-DL-leucine, N-Benzoyl-DL-Leucine], the CFU/mL in data set [1] is 2.23E+08 CFU/mL and 2.69E+08 CFU/mL. Also, in data set [3] (6 hour and 24 hour samples, UV 230 nm), the “liquid chromatography: evidence of breakdown to the active species” value was “breakdown to benzoic acid”. Further, in data set [3], the “GC/MS: concentration of the dominant compound over time” value (“GC/MS: concentration … over time” below) is listed as “decreasing concentration over time” and the “GC/MS: dominant compound found in the sample” value (from here on “GC/MS: dominant compound found”) is given as “benzoic acid as the dominant compound”. Besides, the “ELISA: TSST-1 ng per mL” value in data set [2] was 7.9 ng per mL and 14.6 ng per mL.
On to `CCCCCCCCCCCC(=O)OCc1ccccc1` [Benzyl laurate, Benzyl- laurate], for which, in data set [1], the CFU/mL is 2.05E+08 CFU/mL and 3.05E+08 CFU/mL and 4.05E+08 CFU/mL and 3.80E+08 CFU/mL.
`OCc1ccccc1` [Benzyl alcohol, benzyl alcohol]: the CFU/mL in data set [1] was 5.02E+08 CFU/mL and 7.52E+08 CFU/mL. Moreover, in data set [3], the “GC/MS: concentration … over time” value was “decreased over time” and the “GC/MS: dominant compound found” value is given as “benzyl alcohol”. Further, the “TSST-1 ng/mL” value in data set [4] was 2.46 ng/mL and 2.22 ng/mL and 1.33 ng/mL. In addition, the “toxin production, pairwise statistical comparison” value in data set [2] was “significantly decreased toxin production”.
Regarding `CC(C)C(NC(=O)c1ccccc1)C(=O)O` (racemic) [N-benzoyl-DL-valine, N-Benzoyl-DL-Valine], the CFU/mL in data set [1] is 1.61E+08 CFU/mL and 2.07E+08 CFU/mL.
Consider `O=C(O)c1ccccc1` [benzoic acid], for which, in data set [3], the “GC/MS: concentration … over time” value was “decreased over time” and the “GC/MS: dominant compound found” value was “benzoic acid”.
